Data on 46 compounds can be found in patent US11780841B2, “3,6-methano-1H-pyrrolo[3,2-b]pyridine and 3,6-methano-1H-pyrrolo[3,2-c]pyridine compounds and medicaments using same” (priority 2018, dated 2023).

Where only a bound is given, the exact number is not on record here.

This test deals with recombinant rabies virus 1088 strain expressing Gaussia Luciferase (GLuc) (1088/GLuc). It counts as cell-based. The settings on record: read-out: Anti-rabies activity.
In the case of `CC(C)C[C@@H]1[C@H]2CN[C@@]3(C(=O)NCCO)[C@@H](C2)CN(Cc2cccc4ccccc24)[C@@H]13` [IB-643], the IC50 was in the range of 10 to 30 µM.

Consider `CC(C)C[C@@H]1[C@H]2CN[C@@]3(C(=O)NCCO)[C@@H](C2)CN(CC2CCCCC2)[C@@H]13` [IB-646], for which the IC50 is 10 to 30 µM.

On to `CC(C)CCNC(=O)[C@]12NC[C@H]3C[C@H]1CN(CC1CCCCC1)[C@H]2[C@@H]3Cc1ccc(O)cc1` [IB-648], for which the IC50 is 10 to 30 µM.

For `O=C(NCCO)[C@]12NC[C@H]3C[C@H]1CN(Cc1ccc(F)cc1)[C@H]2[C@@H]3Cc1ccccc1` [IB-649], the IC50 lay in the range of 10 to 30 µM.

As to `CC(C)C[C@@H]1[C@H]2CN[C@@]3(C(=O)NCCO)[C@@H](C2)CN(Cc2ccc(F)cc2)[C@@H]13` [IB-650], the IC50 lay within 10 to 30 µM.

As for `CCCCCCNC(=O)[C@]12NC[C@H]3C[C@H]1CN(Cc1ccc(F)cc1)[C@H]2[C@@H]3Cc1ccc(O)cc1` [IB-656], the IC50 was below 5 µM.

`CC(C)CC[C@@H]1[C@H]2CN[C@@]3(C(=O)NCc4ccc(F)cc4)[C@@H](C2)CN(CCO)[C@@H]13` [IB-657]: the IC50 fell in the range of 10 to 30 µM.

As for `CC(C)CCN1C[C@@H]2C[C@@H]3CN[C@]2(C(=O)NCCO)[C@@H]1[C@@H]3CCc1ccccc1` [IB-658], the IC50 lay in the range of 10 to 30 µM.

For the compound `CC(C)CCN1C[C@@H]2C[C@@H]3CN[C@]2(C(=O)NCCO)[C@@H]1[C@@H]3Cc1cccc2ccccc12` [IB-659], the IC50 was below 5 µM.

Take `O=C(NCCO)[C@]12NC[C@H]3C[C@H]1CN(CC1CCCCC1)[C@H]2[C@@H]3CCc1ccccc1` [IB-663]: the IC50 was below 5 µM.

Consider `CC(C)CC[C@@H]1[C@H]2CN[C@@]3(C(=O)NCCO)[C@@H](C2)CN(Cc2ccc(F)cc2)[C@@H]13` [IB-668], for which the IC50 is below 5 µM.

`O=C(NCCO)[C@]12NC[C@H]3C[C@H]1CN(Cc1ccc(F)cc1)[C@H]2[C@@H]3CCc1ccccc1` [IB-669]: the IC50 lay within 10 to 30 µM.

With `O=C(NCCO)[C@]12NC[C@H]3C[C@H]1CN(Cc1ccccc1)[C@H]2[C@@H]3Cc1ccccc1` [IB-676], the IC50 lay in the range of 10 to 30 µM.

With `CC(C)CCNC(=O)[C@]12NC[C@H]3C[C@H]1CN(Cc1ccccc1)[C@H]2[C@@H]3Cc1ccc(O)cc1` [IB-678], the IC50 was below 5 µM.

For `CC(C)CC[C@@H]1[C@H]2CN[C@@]3(C(=O)NCCO)[C@@H](C2)CN(Cc2ccccc2)[C@@H]13` [IB-680], the IC50 lay within 10 to 30 µM.

As to `O=C(NCCO)[C@]12NC[C@H]3C[C@H]1CN(Cc1ccccc1)[C@H]2[C@@H]3CCc1ccccc1` [IB-681], the IC50 lay within 10 to 30 µM.

As to `CC(C)CCNC(=O)[C@]12NC[C@H]3C[C@H]1CN(CC(C)C)[C@H]2[C@@H]3Cc1ccc(O)cc1` [IB-684], the IC50 lay within 10 to 30 µM.

`CC(C)CN1C[C@@H]2C[C@@H]3CN[C@]2(C(=O)NCCO)[C@@H]1[C@@H]3Cc1cccc2ccccc12` [IB-687]: the IC50 fell in the range of 10 to 30 µM.

As for `CC(C)CCNC(=O)[C@]12NC[C@H]3C[C@H]1CN(CC(C)C)[C@H]2[C@@H]3CCc1ccccc1` [IB-688], the IC50 is below 5 µM.

As for `CC(C)CC[C@@H]1[C@H]2CN[C@@]3(C(=O)NCc4ccccc4)[C@@H](C2)CN(CCC(=O)O)[C@@H]13` [IB-694], the IC50 lay within 10 to 30 µM.

Consider `CC(C)CCN1C[C@@H]2C[C@@H]3CN[C@]2(C(=O)NCCC(N)=O)[C@@H]1[C@@H]3Cc1cccc2ccccc12` [IB-703], for which the IC50 is below 5 µM.

Consider `NC(=O)CCNC(=O)[C@]12NC[C@H]3C[C@H]1CN(CCc1ccccc1)[C@H]2[C@@H]3Cc1ccccc1` [IB-707], for which the IC50 is below 5 µM.

For the compound `CC(C)C[C@@H]1[C@H]2CN[C@@]3(C(=O)NCCC(N)=O)[C@@H](C2)CN(CCc2ccccc2)[C@@H]13` [IB-708], the IC50 was below 5 µM.

As for `NC(=O)CCNC(=O)[C@]12NC[C@H]3C[C@H]1CN(CC1CCCCC1)[C@H]2[C@@H]3CCc1ccccc1` [IB-710], the IC50 is below 5 µM.

As for `NC(=O)CCNC(=O)[C@]12NC[C@H]3C[C@H]1CN(Cc1ccc(F)cc1)[C@H]2[C@@H]3Cc1ccccc1` [IB-712], the IC50 was below 5 µM.

Turning to `CC(C)CCNC(=O)[C@]12NC[C@H]3C[C@H]1CN(CCO)[C@H]2[C@@H]3Cc1ccccc1` [IB-714], the IC50 was below 5 µM.

For the compound `CC(C)C[C@@H]1[C@H]2CN[C@@]3(C(=O)NCCc4ccccc4)[C@@H](C2)CN(Cc2ccc(F)cc2)[C@@H]13` [IB-725], the IC50 was below 5 µM.

Take `CC(C)CCNC(=O)[C@]12NC[C@H]3C[C@H]1CN(CCO)[C@H]2[C@@H]3Cc1cccc2ccccc12` [IB-727]: the IC50 is below 5 µM.

Take `NC(=O)CCNC(=O)[C@]12NC[C@H]3C[C@H]1CN(Cc1ccccc1)[C@H]2[C@@H]3Cc1ccccc1` [IB-734]: the IC50 was in the range of 10 to 30 µM.

Consider `CC(C)CN1C[C@@H]2C[C@@H]3CN[C@]2(C(=O)NCCC(N)=O)[C@@H]1[C@@H]3Cc1cccc2ccccc12` [IB-737], for which the IC50 lay within 10 to 30 µM.

`CC(C)CCNC(=O)[C@]12NC[C@H]3C[C@H]1CN(Cc1ccc(O)cc1)[C@H]2[C@@H]3CC(C)C` [IB-739]: the IC50 fell in the range of 10 to 30 µM.

On to `NC(=O)CCNC(=O)[C@]12NC[C@H]3C[C@H]1CN(Cc1ccc(O)cc1)[C@H]2[C@@H]3Cc1cccc2ccccc12` [IB-743], for which the IC50 is below 5 µM.

For the compound `CC(C)CCN1C[C@@H]2C[C@@H]3CN[C@]2(C(=O)NCc2ccccc2)[C@@H]1[C@@H]3Cc1ccc(O)cc1` [IB-749], the IC50 lay within 10 to 30 µM.

As to `CC(C)CCN1C[C@@H]2C[C@@H]3CN[C@]2(C(=O)NCC(C)C)[C@@H]1[C@@H]3CC(C)C` [IB-753], the IC50 is below 5 µM.

For `CC(C)C[C@@H]1[C@H]2CN[C@@]3(C(=O)NCc4ccccc4)[C@@H](C2)CN(CCc2ccccc2)[C@@H]13` [IB-757], the IC50 is below 5 µM.

For the compound `CC(C)CNC(=O)[C@]12NC[C@H]3C[C@H]1CN(CCc1ccccc1)[C@H]2[C@@H]3Cc1ccccc1` [IB-759], the IC50 is below 5 µM.

In the case of `CC(C)CNC(=O)[C@]12NC[C@H]3C[C@H]1CN(CCc1ccccc1)[C@H]2[C@@H]3CC(C)C` [IB-760], the IC50 is below 5 µM.

Consider `CC(C)CNC(=O)[C@]12NC[C@H]3C[C@H]1CN(Cc1cccc4ccccc14)[C@H]2[C@@H]3CC(C)C` [IB-762], for which the IC50 was below 5 µM.

For `CC(C)CNC(=O)[C@]12NC[C@H]3C[C@H]1CN(Cc1cccc4ccccc14)[C@H]2[C@@H]3Cc1ccc(O)cc1` [IB-763], the IC50 lay within 10 to 30 µM.

Turning to `CC(C)CNC(=O)[C@]12NC[C@H]3C[C@H]1CN(CC1CCCCC1)[C@H]2[C@@H]3Cc1ccc(O)cc1` [IB-770], the IC50 is 10 to 30 µM.

With `O=C(NCc1ccccc1)[C@]12NC[C@H]3C[C@H]1CN(Cc1ccc(F)cc1)[C@H]2[C@@H]3Cc1ccccc1` [IB-772], the IC50 is below 5 µM.

With `CC(C)C[C@@H]1[C@H]2CN[C@@]3(C(=O)NCc4ccccc4)[C@@H](C2)CN(Cc2ccc(F)cc2)[C@@H]13` [IB-773], the IC50 is below 5 µM.

`CC(C)CNC(=O)[C@]12NC[C@H]3C[C@H]1CN(Cc1ccc(F)cc1)[C@H]2[C@@H]3CCc1ccccc1` [IB-774]: the IC50 is below 5 µM.

On to `O=C(NCc1ccccc1)[C@]12NC[C@H]3C[C@H]1CN(Cc1ccccc1)[C@H]2[C@@H]3Cc1cccc2ccccc12` [IB-777], for which the IC50 is below 5 µM.

Take `CC(C)CCNC(=O)[C@]12NC[C@H]3C[C@H]1CN(CC(C)C)[C@H]2[C@@H]3Cc1ccccc1` [IB-780]: the IC50 was below 5 µM.

As to `CC(C)CN1C[C@@H]2C[C@@H]3CN[C@]2(C(=O)NCc2ccccc2)[C@@H]1[C@@H]3Cc1ccc(O)cc1` [IB-783], the IC50 lay in the range of 10 to 30 µM.
